Source: US4256748A, “Imidazo[2,1-b]quinazolin-2(3H)-ones and pharmaceutical compositions for treatment and prophylaxis of cardiac insufficiency and cardiac failure” (Hoffmann-La Roche Inc., priority 1977, dated 1981)
Counter-ions that a name gives are not always drawn.

Assays:
[1] = tested on: blood platelet aggregation; test: Collagen-induced blood platelet aggregation, rabbit plasma (aggregometer method of BORN); assay type: cell-based; settings: Oryctolagus cuniculus, 1 min, 37° C., 1 minute, maximum aggregation velocity, read-out: EC 50, collagen-induced blood platelet aggregation, rabbit plasma
Protocol: (§1) The maximum aggregation velocity was taken as the test parameter and the effective concentration (EC50) was ascertained from dosage-activity curves. Rabbit plasma was obtained by centrifugation from arterial blood treated with citrate (9 mM). 1 ml. of plasma was treated with 10 μl of test solution and the mixture was incubated at 37° C. for 1 minute, whereupon 8 μl of collagen-fibril suspension or 10 μl. of adenosine diphosphate (ADP) in 10^-4 N sodium chloride solution were added. Plasma incubated with dimethylsulfoxide served as the control. |Collagen- and ADP-induced blood platelet aggregation

[2] = tested on: blood platelet aggregation; test: ADP-induced blood platelet aggregation, rabbit plasma (aggregometer method of BORN); assay type: cell-based; settings: Oryctolagus cuniculus, 1 min, 37° C., 1 minute, maximum aggregation velocity, read-out: EC 50, ADP-induced blood platelet aggregation, rabbit plasma
Protocol: as §1

[3] = tested on: blood platelet aggregation; test: Collagen-induced blood platelet aggregation, human plasma (aggregometer method of BORN); assay type: cell-based; settings: 10 min, 37° C., maximum aggregation velocity, read-out: EC 50, collagen-induced blood platelet aggregation, human plasma
Protocol: The maximum aggregation velocity was taken as the test parameter and the effective concentration (EC50) was ascertained from dosage-activity curves. Human plasma was obtained by centifugation from venous blood treated with citrate (10.6 mM). 0.18 ml. of plasma was treated with 10 μl of an aqueous suspension of the test substance and the mixture was incubated at 37° C. for 10 minutes, whereupon the aggregation was initiated by the addition of 10 μl of collagen-fibril suspension. |Collagen- and ADP-induced blood platelet aggregation

conscious sheepdogs = test: Positive inotropic activity and heart frequency after oral administration to conscious sheepdogs; assay type: in vivo
Protocol: The positive inotropic activity was measured after the oral administration of a test substance to conscious sheepdogs. For this purpose, the animals are provided with an implanted pressure-telemetry system, so that the pressure receiver is fixed in the left ventricle. The left ventricular pressure is sent from the animal via the implanted radio transmitter and received via a suitable antenna and receiver system, demodulated and amplified. By differentiation of the ascending side of the left ventricular pressure (LVP), the maximum pressure increase rate (dLVP/dtmax) which represents the contractility parameter is calculated. Simultaneously, the heart frequency is recorded via a cardiotachograph. Under the heading inotropy in Table II, the percentage variation (Δ%) of dLVP/dtmax and the duration of activity in minutes (min) are indicated. Under the heading tachycardia in Table II, the percentage variations of the heart frequency (Δ%) after administration of the test substance and the duration of activity in minutes (min) are indicated.

Compound | EC50 [1] [µM] | EC50 [2] [µM] | EC50 [3] [µM] | Heart frequency Min (duration of activity; tachycardia) (conscious sheepdogs; 10 mg/kg) [min] | Heart frequency Δ % (percentage variation; tachycardia) (conscious sheepdogs; 10 mg/kg) [%] | Inotropy Min (duration of activity) (conscious sheepdogs; 10 mg/kg) [min] | Inotropy Δ % (percentage variation of dLVP/dtmax) (conscious sheepdogs; 10 mg/kg) [%] | Heart frequency Min (duration of activity; tachycardia) (conscious sheepdogs; 5 mg/kg) [min] | Heart frequency Δ % (percentage variation; tachycardia) (conscious sheepdogs; 5 mg/kg) [%] | Inotropy Min (duration of activity) (conscious sheepdogs; 5 mg/kg) [min] | Inotropy Δ % (percentage variation of dLVP/dtmax) (conscious sheepdogs; 5 mg/kg) [%]
Cc1cccc2c1N=C1NC(=O)[C@H](C)N1C2 [L-1,5-dihydro-3,9-dimethylimidazo[2,1-b]quinazolin-2(3H)-one] | 18 | 60 | 49 | 100 | 16 | 120 | 43 |  |  |  | 
Cc1cccc2c1CN1C(=N2)NC(=O)[C@@H]1CO [L-1,5-dihydro-3-hydroxymethyl-6-methyl-imidazo[2,1-b]quinazoline-2(3H)-onehydrochloride] |  |  | 14 |  |  |  |  |  |  |  | 
C[C@@H]1C(=O)NC2=Nc3cccc(Cl)c3CN21.Cl [D-6-chloro-1,5-dihydro-3-methyl-imidazo[2,1-b]quinazolin-2(3H)-one hydrochloride] |  |  |  |  |  |  |  | 115 | 28 | 145 | 93
Cc1ccc2c(c1)CN1C(=N2)NC(=O)[C@H]1C [D-1,5-dihydro-3,7-dimethylimidazo[2,1-b]-quinazolin-2(3H)-one hydrochloride] | 3.1 | 19 | 3.4 |  |  |  |  |  |  |  | 
Cc1cccc2c1CN1C(=N2)NC(=O)[C@H]1C.Cl [D-1,5-dihydro-3,6-dimethylimidazo[2,1-b]-quinazolin-2(3H)-one hydrochloride] | 0.19 | 2.2 | 2.3 | 480 | 63 | 440 | 82 |  |  |  | 
Cc1ccc2c(c1)CN1C(=N2)NC(=O)[C@@H]1C [L-1,5-Dihydro-3,7-dimethyl-imidazo[2,1-b]quinazolin-2(3H)-one hydrochloride] | 22 | 77 | 33 |  |  |  |  |  |  |  | 
Cc1cccc2c1CN1C(=N2)NC(=O)[C@@H]1C [L-1,5-dihydro-3,6-dimethylimidazo[2,1-b]-quinazoline-2(3H)-one hydrochloride] | 0.93 | 11 | 6.2 |  |  |  |  |  |  |  | 
Cc1cccc2c1N=C1NC(=O)[C@@H](C)N1C2 [D-1,5-dihydro-3,9-dimethylimidazo[2,1-b]-quinazolin-2(3H)-one hydrochloride] | 3 | 32 | 26 |  |  |  |  |  |  |  | 
